Experimental data published in patent US20060058379A1, “Connexin 26 inhibitor and cancer metastasis inhibitors” (priority 2002, published 2006).
Entries after “also recorded” stand apart in the source; their conditions may differ.

How the values were obtained:
connexin 43 = target: T1, connexin 43 (Rattus norvegicus, UniProt P08050); experiment: Dye-transfer assay (GJIC) in HeLa-Cx43 cells; format: cell-based; details: HeLa-Cx43, calcein/DiI dye transfer, FIG. 1
T1 construct: contained a cDNA fragment of an entire coding region of rat Cx43; expressed in transfected cells; host or cells: HeLa cells stably transfected with pCX4bsr-Cx43 (clone HeLa-Cx43)
From the text: A pCX4bsr vector was derived from the pCXbsr vector (T Akagi., et al., 2000, Proc. Natl. Acad. Sci. USA) with minor modification. The pCX4bsr vector was kindly given by Dr. T Akagi (Osaka Bioscience Institute, Osaka, Japan). The pBluescriptII SK+plasmid vector contained a cDNA fragment of an entire coding region of rat Cx43 between the Spel and ClaI sites, and was constructed previously (Y. Omori., et al., 1998, Int. J. Cancer). The Cx43cDNA was excised by digesting NotI and HincII, and being ligated with the pCX4bsr where NotI and HincII were digested. HeLa cells were transfected with the resulting pCX4bsr-Cx43 vector by using the TransFast transfection regent. […]
(§1) Cells containing the gap junction-impermeable DiI (red fluorescence) were identified as donor cells. […]
The level of gap junction cell-to-cell communication (GJIC) was scored by the following methods.
Donor cells were scored as 0 for no dye-coupling, as 1 for dye-coupling from a donor cell to an adjacent recipient cell, and as 2 or 3 when calcein transferred to the adjacent recipient cell further transfers to a second or a third adjacent cell, subsequently, in a direction away from the donor cell. […] The experiments were repeated three times and mean and standard deviation of score counts were calculated for each factor. […]

[1] = test system: BL6 cells (substrains of B16 mouse melanoma cells); experiment: Cancer metastasis inhibitory action test 1: spontaneous lung metastasis after subcutaneous BL6 inoculation; format: in vivo; details: C57B1/6 mice; for metastasized tubercles in lungs (number of foci) vs vehicle group: counted four weeks after dismembering
Description: The mice were treated in the above manners on consecutive days after the BL6 cells inoculation. Then, on about 18th day, tumors (about six mm in diameter) formed at inoculation points were removed by dismembering at knee joints. Then the mice were treated in the above manners for another two days after the dismembering. After that, the mice were fed without the treatments. At four weeks after the dismembering at the knee joints, the mice were euthanized, and metastasized tubercles in both left and right lungs (the number of focuses) were counted visually (refer to FIG. 2 (a) through (c) and FIG. 3). Cancer metastasis inhibitory action was evaluated using 10 mice for each group.

connexin 26 = target: T2, connexin 26 (Rattus norvegicus, UniProt P21994); experiment: Dye-transfer assay (GJIC) in HeLa-Cx26 cells; format: cell-based; details: HeLa-Cx26, calcein/DiI dye transfer, FIG. 1
T2 construct: expressed in transfected cells; host or cells: HeLa (human cervical carcinoma) subclone HeLa-Cx26
From the text: The connexin 26 inhibitory activity can be evaluated with dye-transfer assay, for example. Specifically, a gap junction level (GJIC score) against the connexin 26 is used for evaluation (c.f. Japanese Laid-Open Patent Publication No. 17184/2001, “Tokukai 2001-17184, publication date: Jan. 23, 2001, and M. Mensil et al. Cancer Res. Vol 55, 629-639 1995.).
With this method, labelling dye, which can be transferred to outside of cells only through the gap junctions, is introduced into cells. Then the cells are smeared on a monolayer culture or a tissue culture. […]
GJIC score can be calculated as described in following examples. That is, if no dye-coupling occurs with respect to the donor cells, “0” is scored; “1” is scored if dye-coupling from the donor cell to an adjacent receptive cell occurs; and “2” is scored if dye-coupling from the donor cell to a second adjacent cell occurs. In this manner, when dye-coupling to n^th adjacent cell from the donor cell occurs, “n” (an integer) is scored. […]
as §1
The level of gap junction cell-to-cell communication (GJIC) was scored by the following methods. […]

[2] = Death of mice due to causes other than cancer under daily administration (Example 5); format: in vivo, mouse; details: C57B1/6 mice, approximately two months, FIG. 5
[3] = test system: BL6 cells (substrains of B16 mouse melanoma cells); experiment: Cancer metastasis inhibitory action test 2: spontaneous lung metastasis after subcutaneous BL6 inoculation; format: in vivo; details: C57B1/6 mice, counted four weeks after dismembering
Description: After subcutaneously inoculating 1×10^5 BL6 cells (substrains of B16 mouse melanoma cells) to a planter of each C57B1/6 mouse, the mice were classified into three groups. • 1) Control mice (Nt) with no treatment but transplanting […]; • 2) Oleamide (25 mg/kg/day) administration group: peritoneal injection of olive oil 0.2 ml dissolved with oleamide at concentration of 25 mg/kg/day once a day on consecutive days; and • 3) MI-18 (10 mg/kg/day) administration group: olive oil 0.2 ml dissolved with MI-18 at concentration of 10 mg/kg/day once a day on consecutive days.
The mice were treated in the above manners every day after the BL6 cells inoculation. Then, on about 18th day, tumors (about eight mm radical) formed at the injected points were removed by dismembering at knee joints. Then the mice were treated in the above manners for another two days after the dismembering. After that, mice were fed without the treatments. At four weeks after dismembering at the knee joints, the mice were euthanized, and metastasized tubercles in both left and right lungs (the number of focuses) were counted visually (refer to FIG. 2 (a) through (c) and FIG. 3). Cancer metastasis inhibitory action was evaluated using 15 mice for each group. […] Therefore, these materials are highly safe. […]

T1 sequence (P08050 2-382): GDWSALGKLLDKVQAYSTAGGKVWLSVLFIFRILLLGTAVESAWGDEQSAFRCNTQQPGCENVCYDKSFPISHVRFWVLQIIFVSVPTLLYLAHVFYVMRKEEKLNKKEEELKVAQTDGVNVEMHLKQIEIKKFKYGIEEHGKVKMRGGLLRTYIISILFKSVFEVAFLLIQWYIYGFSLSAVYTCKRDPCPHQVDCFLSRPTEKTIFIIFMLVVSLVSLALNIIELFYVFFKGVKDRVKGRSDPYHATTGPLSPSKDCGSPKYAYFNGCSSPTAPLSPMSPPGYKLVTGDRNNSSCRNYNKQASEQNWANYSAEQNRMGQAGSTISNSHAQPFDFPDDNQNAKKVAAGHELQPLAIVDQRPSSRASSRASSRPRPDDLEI

Row | Structure (SMILES) | inhibitory activity against connexin 43 (gap junction dye-coupling) (connexin 43) | metastasized tubercles in lungs (number of foci) vs vehicle group ([1]; 25 mg/kg/day peritoneal injection twice a day) | metastasized tubercles in lungs (number of foci) vs vehicle group ([1]; 50 mg/kg/day twice a day) | metastasized tubercles in lungs (number of foci) ([1]; 500 mg/kg/day, FIG. 2 (d)) | inhibitory activity against connexin 26 (gap junction dye-coupling) (connexin 26) | death of mice due to causes other than cancer ([2]; 25 mg/kg/day every day, 25 mg/kg/day) | metastasized tubercles in lungs (number of foci) vs untreated group ([3]; 25 mg/kg/day peritoneal injection once a day) | death of mice due to causes other than cancer ([2]; 10 mg/kg/day every day) | metastasized tubercles in lungs (number of foci) vs untreated group ([3]; 10 mg/kg/day once a day)
1 | CCCCCCCC/C=C\CCCCCCCC(N)=O [oleamide, 9(Z)-Octadecenamide] | exhibited inhibitory action | fewer metastasized tubercles and significantly exhibited cancer metastasis inhibitory action | fewer metastasized tubercles and significantly exhibited cancer metastasis inhibitory action | the similar result was obtained | exhibited inhibitory action; also recorded: exhibits inhibitory activity | death rates due to causes other than cancer were low; also recorded: no mice died due to other causes but cancer | fewer metastasized tubercles and significantly exhibited cancer metastasis inhibitory activity |  | 
2 | CCCCCCCC[C@H]1O[C@H]1CCCCCCCC(N)=O (relative stereo) [MI-18, 8-[(2S*3R*)-3-octyloxirane-2-yl]octanamide] | specifically inhibits only connexin 26 |  |  |  | exhibits inhibitory activity |  |  | no mice died due to other causes but cancer | fewer metastasized tubercles and significantly exhibited cancer metastasis inhibitory activity
